The test system of one series is Blood. Kind of series: Ratio of compound IC50 to TXA IC50 in anti-fibrinolytic activity in healthy human fresh blood by plasma clot lysis. In kind it is functional.
Series [1] in a line: AUC (0 to infinity) in beagle dog at 1 mg/kg, iv measured upto 24 hrs by LC-MS/MS analysis. To be noted: in vivo. In kind it is ADME, organism-based, Canis lupus familiaris.
Series [2] can be described thus: Clearance in beagle dog at 1 mg/kg, iv measured upto 24 hrs by LC-MS/MS analysis. In kind it is ADME, organism-based, Canis lupus familiaris. To be noted: in vivo.
Series [3] can be described thus: Half life in Sprague-Dawley rat at 1 mg/kg, iv measured upto 24 hrs by LC-MS/MS analysis. In kind it is ADME, organism-based. To be noted: in vivo.
Series [4] is described as follows: Clearance in Sprague-Dawley rat at 1 mg/kg, iv measured upto 24 hrs by LC-MS/MS analysis. In kind it is ADME, organism-based. To be noted: in vivo.
Series [5] addresses Tissue-type plasminogen activator (Rattus norvegicus) (UniProt P19637). Put plainly: Inhibition of recombinant tissue plasminogen activator (rt-PA)-induced fibrinolysis in Sprague-Dawley rat fresh whole blood assessed as thrombus dissolution within 30 mins after reaching maximum amplitude (LY30) at > 3 uM by thromboelastography analysis. In kind it is functional, tissue-based.

A short description of series [6]: Volume of distribution at steady state in Sprague-Dawley rat at 1 mg/kg, iv measured upto 24 hrs by LC-MS/MS analysis. Particulars: in vivo, read-out: Vdss. In kind it is ADME, organism-based.
The nature of series [7]: Volume of distribution at steady state in beagle dog at 1 mg/kg, iv measured upto 24 hrs by LC-MS/MS analysis. In kind it is ADME, organism-based, Canis lupus familiaris. To be noted: in vivo, read-out: Vdss.
Series [8] concerns the target Tissue-type plasminogen activator (Homo sapiens) (UniProt P00750). Put plainly: Inhibition of recombinant human tissue plasminogen activator (rt-PA)-induced fibrinolysis in human fresh whole blood assessed as thrombus dissolution within 30 mins after reaching maximum amplitude (LY30) by thromboelastography analysis. In kind it is functional, tissue-based.
Series [9] deals with Rattus norvegicus. Put plainly: Hemostatic effect in rt-PA enhanced Sprague-Dawley rat tail bleeding model assessed as reduction in tail bleeding time at 40 mg/kg infused into right jugular vein. To be noted: route iv. In kind it is functional, organism-based.
For series [10], the system named is Rattus norvegicus. Put plainly: Hemostatic effect in rt-PA enhanced Sprague-Dawley rat tail bleeding model assessed as reduction in tail bleeding time at 5 mg/kg infused into right jugular vein. In kind it is functional, organism-based. To be noted: route iv.
The species entered for another series is Homo sapiens. Put plainly: (§1) Inhibition of Plasminogen (unknown origin) binding to fibrin (unknown origin) interaction by surface plasmon resonance (SPR) analysis. On the technique in general: SPR reads the build-up and loss of mass on a sensor chip optically.
The nature of series [11]: as §1. More on the design: species or system Homo sapiens.
Series [12] in a line: AUC (0 to infinity) in Sprague-Dawley rat at 1 mg/kg, iv measured upto 24 hrs by LC-MS/MS analysis. In kind it is ADME, organism-based. Particulars: in vivo.
Series [13] is described as follows: Half life in beagle dog at 1 mg/kg, iv measured upto 24 hrs by LC-MS/MS analysis. In kind it is ADME, organism-based, Canis lupus familiaris. To be noted: in vivo.

Molecules are shown by their SMILES. pIC50: −log10 of the molar value. The source made the active and inactive calls.

Sequence of Tissue-type plasminogen activator (Homo sapiens) (P00750 36-562 limits assumed): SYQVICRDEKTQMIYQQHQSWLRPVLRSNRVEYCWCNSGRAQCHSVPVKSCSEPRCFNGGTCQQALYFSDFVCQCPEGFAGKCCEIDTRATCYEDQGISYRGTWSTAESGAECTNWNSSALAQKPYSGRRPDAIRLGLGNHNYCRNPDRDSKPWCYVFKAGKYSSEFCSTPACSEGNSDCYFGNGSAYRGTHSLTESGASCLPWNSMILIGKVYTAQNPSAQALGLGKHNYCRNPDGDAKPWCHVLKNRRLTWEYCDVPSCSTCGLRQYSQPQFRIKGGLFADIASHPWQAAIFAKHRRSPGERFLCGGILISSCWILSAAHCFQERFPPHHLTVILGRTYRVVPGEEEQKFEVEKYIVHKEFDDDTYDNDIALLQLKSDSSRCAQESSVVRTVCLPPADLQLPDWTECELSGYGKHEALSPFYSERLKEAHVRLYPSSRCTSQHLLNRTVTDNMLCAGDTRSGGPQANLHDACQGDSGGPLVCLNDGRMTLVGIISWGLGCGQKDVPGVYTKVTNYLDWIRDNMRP
Sequence of Tissue-type plasminogen activator (Rattus norvegicus) (P19637 whole entry): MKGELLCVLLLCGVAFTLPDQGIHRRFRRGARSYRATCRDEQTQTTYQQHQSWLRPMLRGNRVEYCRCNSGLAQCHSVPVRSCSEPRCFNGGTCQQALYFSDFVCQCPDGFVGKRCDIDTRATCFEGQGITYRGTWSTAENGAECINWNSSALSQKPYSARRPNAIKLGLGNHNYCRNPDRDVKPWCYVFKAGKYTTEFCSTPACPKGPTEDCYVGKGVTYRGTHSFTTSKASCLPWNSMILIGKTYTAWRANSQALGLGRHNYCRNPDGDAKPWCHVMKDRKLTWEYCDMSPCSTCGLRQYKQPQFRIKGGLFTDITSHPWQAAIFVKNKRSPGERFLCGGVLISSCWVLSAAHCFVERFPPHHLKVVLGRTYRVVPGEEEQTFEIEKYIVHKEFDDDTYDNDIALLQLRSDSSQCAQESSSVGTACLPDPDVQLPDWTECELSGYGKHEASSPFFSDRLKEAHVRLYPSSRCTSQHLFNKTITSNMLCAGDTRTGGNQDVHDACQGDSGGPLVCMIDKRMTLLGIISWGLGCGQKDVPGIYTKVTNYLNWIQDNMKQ

For `Cl.NC(=O)NC(=O)c1ccc2c(n1)CCNC2`, the “Ratio IC50” value in the series with Blood is greater than 10. On the same count and under the same terms, with `CS(=O)(=O)NC(=O)c1ccc2c(n1)CCNC2.Cl` the figure was 2.06. For `Cl.O=P(O)(CCc1ccccc1)c1ccc2c(n1)CCNC2`, the “Ratio IC50” value in the series with Blood stood at 0.36. On the same count and under the same terms, with `Cl.NS(=O)(=O)c1ccc2c(n1)CCNC2` the figure was 4.26; with `CC(C)CCC1Cc2nc(P(=O)(O)O)ccc2CN1.Cl` (mixture of isomers), 0.09; with `Cl.O=P(O)(O)c1ccc2c(n1)CC(Cc1ccccc1)NC2` (mixture of isomers), 0.75. Take `Cl.O=P(O)(O)c1ccc2c(n1)C(N1CCOCC1)CNC2` (mixture of isomers): the “Ratio IC50” value with Blood is given as 0.3. Still for that read-out and setting: next, `CN(C)S(=O)(=O)NC(=O)c1ccc2c(n1)CCNC2.Cl`: 0.99. The same measure, in the same setting: next, `Cl.O=S(=O)(O)c1ccc2c(n1)CCNC2`: 0.93; `CC(C)C1Cc2nc(P(=O)(O)O)ccc2CN1.Cl` (mixture of isomers): 0.14; `CC(C)(C)CCC1Cc2nc(P(=O)(O)O)ccc2CN1.Cl` (mixture of isomers): 0.1.

For `Cl.O=P(O)(c1ccccc1)c1ccc2c(n1)CCNC2`, the “Ratio IC50” value with Blood was determined as 0.2.

As to `Cl.O=C(O)c1ccc2c(n1)CCNC2`, the “Ratio IC50” value in the series on Blood was 0.25. On the same count and under the same terms, next, `CCP(=O)(O)c1ccc2c(n1)CCNC2.Cl`: 0.86; `Cl.O=P(O)(O)c1ccc2c(n1)C(N1CCSCC1)CNC2` (mixture of isomers): 0.21. Regarding `Cl.c1cc2c(nc1-c1nnn[nH]1)CCNC2`, the “Ratio IC50” value with Blood was determined as 0.9. `Cl.O=P(O)(O)c1ccc2c(n1)CC(CCc1ccccc1)NC2` (mixture of isomers): the “Ratio IC50” value in the series with Blood is 0.2.

`CC(C)CC1Cc2nc(P(=O)(O)O)ccc2CN1.Cl` (mixture of isomers): the “Ratio IC50” value with Blood came to 0.08. For `Cl.O=C(O)c1cc2c(s1)CNCC2`, the “Ratio IC50” value in the series on Blood stood at 1.36. As usually defined, the AUC(0-inf) is total exposure, with the tail of the curve extrapolated. As a reminder, the clearance is a measure of how efficiently the substance is removed, as volume per time. Read a high clearance as a high capacity for elimination. Usually half-life stands for the time needed for the level to fall by half in the phase considered. Higher therefore signals slow loss. As usually defined, the IC90 is the point of the concentration-response curve where the effect stands at 90%. A word on the pIC50: it is the IC50 on a negative log10 scale, so that one unit is a factor of ten. As to `NC[C@H]1CC[C@H](C(=O)O)CC1` [TRANEXAMIC ACID], the AUC(0-inf) came out at 6680 ng·h/mL in [1] and 2820 ng·h/mL in series [12]. Also, the figures for the clearance in [2] and in series [4] were 2.46 mL/min/kg and 5.78 mL/min/kg, respectively. Moreover, the values for the half-life in [3] and in [13] were 76.8 min and 320 min, respectively. The inhibition entry in [5] was “Active”. For the same molecule, the results for the Vd in series [6] and in series [7] were 0.296 L/kg and 0.587 L/kg, respectively. Moreover, the values for the IC90 (in series [8]; in the series filed under Homo sapiens) were 10.1 µM and 78.7 µM, respectively. Further, the outcome in the series on Rattus norvegicus [9] and in the series with Rattus norvegicus [10] was Active. Besides, the pIC50 in series [11] was 5.27. As for `Cl.O=P(O)(O)c1ccc2c(n1)C(N1CCS(=O)(=O)CC1)CNC2` (mixture of isomers), the “Ratio IC50” value with Blood was 0.25. Turning to `Cl.O=C(O)c1cnc2c(c1)CCNC2`, in the series with Blood, the “Ratio IC50” value is 2.16.

For the molecule `Cl.O=P(O)(O)c1ccc2c(n1)C(N1CC[S+]([O-])CC1)CNC2` (mixture of isomers), the “Ratio IC50” value with Blood is given as 0.17. Same read-out and setting: next, `CCCC1Cc2nc(P(=O)(O)O)ccc2CN1.Cl` (mixture of isomers): 0.2.

On to `CCOP(=O)(O)c1ccc2c(n1)CCNC2.Cl`, for which, in the series with Blood, the “Ratio IC50” value is reported as 0.29. For the molecule `Cl.O=C(O)c1nc2c(s1)CNCC2`, the “Ratio IC50” value in the series with Blood was 0.94. For the molecule `Cl.O=c1[nH]c(-c2ccc3c(n2)CCNC3)no1`, the “Ratio IC50” value in the series with Blood was determined as 0.86. On the same count and under the same terms, next, `Cl.O=P(O)(Cc1ccccc1)c1ccc2c(n1)CCNC2`: 1.29; `Cl.O=C(O)c1nc2c(s1)CCNC2`: greater than 10. On to `CC(=O)NS(=O)(=O)c1ccc2c(n1)CCNC2.Cl`, for which the “Ratio IC50” value in the series with Blood is reported as greater than 10. For `Cl.O=C(O)c1cc2c(cn1)CNCC2`, the “Ratio IC50” value in the series on Blood amounted to 4.33. Turning to `NCCCCCC(=O)O`, the outcome in the series on Rattus norvegicus [10] was inactive. Regarding `Cl.O=C(O)c1nc2c([nH]1)CCNC2`, the “Ratio IC50” value in the series on Blood was greater than 10. Same read-out and setting: with `CC(C)(C)C[C@H]1C[C@@H](c2cc(=O)[nH]o2)CCN1.Cl` the figure was 0.15; with `Cl.O=C(O)c1ccc2c(c1)CCNC2`, 0.63; with `CC(C)(C)CC1Cc2nc(P(=O)(O)O)ccc2CN1.Cl` (mixture of isomers), 0.19.

The values are drawn from ChEMBL document CHEMBL6103656, “Discovery of BT-114143, a Novel and Potent Phosphoric Acid-Containing Small-Molecule Plasminogen Activation Inhibitor for Hyperfibrinolysis” (J Med Chem, 2025).
